These results are taken from BindingDB's records for doi:10.7270/Q2N014XN (Srmlsc, 2007).

The first experiment addresses T1, Diphosphomevalonate decarboxylase (Streptococcus pneumoniae serotype 2 (strain D39 / NCTC 7466), UniProt A0A0H2ZN59).
T1 sequence (A0A0H2ZN59 whole entry): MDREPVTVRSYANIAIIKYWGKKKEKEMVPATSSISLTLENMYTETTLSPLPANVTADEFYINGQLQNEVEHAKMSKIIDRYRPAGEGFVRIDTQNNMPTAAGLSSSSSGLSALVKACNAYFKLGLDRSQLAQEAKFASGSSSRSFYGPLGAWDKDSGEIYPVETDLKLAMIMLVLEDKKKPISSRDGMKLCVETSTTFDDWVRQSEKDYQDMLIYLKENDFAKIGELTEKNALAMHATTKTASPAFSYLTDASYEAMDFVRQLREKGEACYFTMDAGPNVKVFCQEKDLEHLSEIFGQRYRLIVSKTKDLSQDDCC
Put plainly: S. pneumoniae DPM-DC inhibitor potency, dose response, biochemical, PK/LDH-coupled NADH fluorescence, hexokinase coupling counter-screen (AID 550).
Conditions: not given
On the technique in general: The purpose of a counterscreen is to sort out artefacts and off-target activity.
What is called IC50 is the concentration that gives 50% inhibition. Low values mean greater potency, high ones weaker potency. The compound `COC(=O)c1ccc(COc2ccc3c4c(c(=O)oc3c2)CCC4)o1` [5-[(4-keto-2,3-dihydro-1H-cyclopenta[c]chromen-7-yl)oxymethyl]furan-2-carboxylic acid methyl ester] gave an IC50 of 97.1 µM.
Consider `COc1ccc(-c2c3c(nc4sc(C(=O)Nc5cc(C)on5)c(N)c24)CCC3)cc1` [3-amino-4-(4-methoxyphenyl)-N-(5-methyl-3-isoxazolyl)-6,7-dihydro-5H-cyclopenta[b]thieno[3,2-e]pyridine-2-carboxamide], for which the concentration for half-maximal inhibition (IC50) worked out at 8.33 µM.
Consider `O=c1c2ccccc2sn1-c1cc(S(=O)(=O)N2CCOCC2)ccc1N1CCOCC1` [2-(2-morpholin-4-yl-5-morpholin-4-ylsulfonyl-phenyl)-1,2-benzothiazol-3-one], for which the IC50 is 15.4 µM.
Still for that read-out and setting: under `CSc1ncc(Cl)c(C(=O)Nc2nnc(SC)s2)n1` [5-chloranyl-2-methylsulfanyl-N-(5-methylsulfanyl-1,3,4-thiadiazol-2-yl)pyrimidine-4-carboxamide] stands over 10000 µM; under `Cc1ccc(S(=O)(=O)NCCN2CCOCC2)cc1C` [3,4-Dimethyl-N-(2-morpholin-4-yl-ethyl)-benzenesulfonamide], over 10000 µM; under `CCOC(=O)c1cc2nc(Nc3ccc(OC)cc3)sc2s1` [2-(4-methoxyanilino)-5-thieno[3,2-d]thiazolecarboxylic acid ethyl ester], 44.6 µM.
Take `COc1ccc(C(c2nnnn2CC2CCCO2)N2CCN(c3ccccc3)CC2)cc1` (configuration not stated) [1-[(4-methoxyphenyl)-[1-(2-oxolanylmethyl)-5-tetrazolyl]methyl]-4-phenylpiperazine]: the IC50 was over 10000 µM.
In the case of `CCCN(CC(=O)c1cc(C)n(C)c1C)S(=O)(=O)c1cccc(C(F)(F)F)c1` [MLS000055141], the IC50 was over 10000 µM.
Still for that read-out and setting: with `Cc1nc(NCCN)c(C#N)c2c1COC(C)(C)C2` [6-(2-aminoethylamino)-3,3,8-trimethyl-1,4-dihydropyrano[3,4-c]pyridine-5-carbonitrile] the figure was 73.8 µM; with `COc1cc2c(cc1NC(=O)c1ccc3c(c1)OCO3)oc1ccccc12` [MLS000088875], over 10000 µM; with `CC1(C)Cc2nc3sc4c(=O)[nH]cnc4c3cc2CS1` [8,8-dimethyl-7,10-dihydro-8H-thiopyrano[3'',4'':5',6']pyrido[3',2':4,5]thieno[3,2-d]pyrimidin-4(3H)-one], 108 µM.
`COC(=O)c1c(C(=O)OC)c2ccncn2c1Cl` [7-Chloro-pyrrolo[1,2-c]pyrimidine-5,6-dicarboxylic acid dimethyl ester] returned a half-inhibitory concentration (IC50) of 26.8 µM.
The same measure, in the same setting: under `CCOC(=O)N1CCN(C(=O)CCc2c(C)nc3c(c(C)nn3-c3ccc(C)c(C)c3)c2C)CC1` [4-[3-[1-(3,4-dimethylphenyl)-3,4,6-trimethyl-5-pyrazolo[3,4-b]pyridinyl]-1-oxopropyl]-1-piperazinecarboxylic acid ethyl ester] stands 27.8 µM; under `CCOC(=O)CC(=O)CSc1ccc2nnc(-c3ccc(C)cc3)n2n1` [3-keto-4-[[3-(p-tolyl)-[1,2,4]triazolo[4,3-b]pyridazin-6-yl]thio]butyric acid ethyl ester], 287 µM.
The same measure, in the same setting: under `Cc1ccsc1C1C(C(=O)O)c2ccccc2C(=O)N1C` (configuration not stated) [1-keto-2-methyl-3-(3-methyl-2-thienyl)-3,4-dihydroisoquinoline-4-carboxylic acid] stands over 10000 µM; under `C/C=C/Cn1c(N(C)Cc2ccccc2)nc2c1c(=O)[nH]c(=O)n2C` [8-[benzyl(methyl)amino]-7-[(E)-but-2-enyl]-3-methylpurine-2,6-dione], over 10000 µM.
`O=C(O)CCn1nnc(-c2cccs2)n1` [3-(5-Thiophen-2-yl-tetrazol-2-yl)-propionic acid] came in with a half-inhibitory concentration (IC50) of over 10000 µM.
Same read-out and setting: under `O=C(CN1CCCC1)N1CCCc2c1c(=O)oc1ccc(OCc3ccccc3)cc21` [4-[1-oxo-2-(1-pyrrolidinyl)ethyl]-9-phenylmethoxy-2,3-dihydro-1H-[1]benzopyrano[3,4-b]pyridin-5-one] stands 24.7 µM.
The same measure, in the same setting: under `Cc1cc(=O)[nH]c2ccccc12` stands over 10000 µM.
The compound `Cn1cc(O)nc1NC(=O)C12CC3CC(CC(C3)C1)C2` had a half-inhibitory concentration (IC50) of over 10000 µM.
The compound `CCc1ccc(CCC(=O)Nc2ccc(C)c(C)c2)o1` [MLS000064736] came in with a 50% inhibitory concentration (IC50) of over 10000 µM.
On the same count and under the same terms, under `CCN(CC)CCOC(=O)c1ccc(NC=C2C(=O)CC(C)(C)CC2=O)cc1` stands over 10000 µM; under `CC(O)COc1ccc(C(N=O)c2ccccc2)cc1` (configuration not stated) [(E)-[4-(2-hydroxypropoxy)phenyl](phenyl)methanone oxime], over 10000 µM; under `CCOC(=O)c1cncc(NC(=O)c2ccccc2)c1` [5-benzamido-3-pyridinecarboxylic acid ethyl ester], over 10000 µM.
The same measure, in the same setting: under `O=C1CCC(C(=O)N(Cc2ccco2)C2(C(=O)NC3CCCC3)CCCCC2)N1` (configuration not stated) [MLS000090457] stands over 10000 µM; under `Cc1cc(=O)oc2cc(OC(C)C(=O)O)c(Cl)cc12` (configuration not stated) [2-(6-chloranyl-4-methyl-2-oxidanylidene-chromen-7-yl)oxypropanoic acid], over 10000 µM; under `Cc1c(C(=O)NCc2ccc3c(c2)OCO3)sc2nc(-c3ccccc3)cn12` [3-methyl-6-phenyl-N-piperonyl-imidazo[2,1-b]thiazole-2-carboxamide], over 10000 µM.
On the same count and under the same terms, with `Cc1ccc2oc(=O)c3cnn(CC(=O)NC4CCN(Cc5ccccc5)CC4)c3c2c1` [2-(8-methyl-4-oxidanylidene-chromeno[4,3-c]pyrazol-1-yl)-N-[1-(phenylmethyl)piperidin-4-yl]ethanamide] the figure was over 10000 µM; with `O=C(CSc1nnnn1Cc1ccccc1)NCCc1ccccc1` [2-(1-Benzyl-1H-tetrazol-5-ylsulfanyl)-N-phenethyl-acetamide], over 10000 µM.
In the case of `CCn1cc(C(=O)NCc2ccco2)c(=O)c2cc(F)c(N3CCN(C(=O)c4ccco4)CC3)cc21` [1-ethyl-6-fluoranyl-7-[4-(furan-2-ylcarbonyl)piperazin-1-yl]-N-(furan-2-ylmethyl)-4-oxidanylidene-quinoline-3-carboxamide], 16.7 µM corresponded to half-maximal inhibition (IC50).
Still for that read-out and setting: with `Cc1ccc2nc(-c3ccc(SCC(=O)O)nc3)[nH]c2c1` [2-[[5-(6-methyl-1H-benzimidazol-2-yl)-2-pyridinyl]thio]acetic acid] the figure was 9.87 µM.
Still for that read-out and setting: under `N#C/C(=C\C1CC=CCC1)c1nc2ccccc2[nH]1` (configuration not stated) [(E)-2-(1H-benzimidazol-2-yl)-3-cyclohex-3-en-1-ylprop-2-enenitrile] stands over 10000 µM; under `COc1ccc(CCn2c(N)c(S(=O)(=O)c3cccs3)c3nc4ccccc4nc32)cc1OC` [1-[2-(3,4-dimethoxyphenyl)ethyl]-3-thiophen-2-ylsulfonyl-2-pyrrolo[3,2-b]quinoxalinamine], 105 µM; under `Sc1nnc(-c2ccccc2)n1C1C=CCCC1` (configuration not stated) [MLS000111390], over 10000 µM.
On the same count and under the same terms, with `CCCCC(=O)Nc1ccc(C(N)=O)cc1` [4-(1-oxopentylamino)benzamide] the figure was over 10000 µM; with `Cc1c(NC(=O)CN2c3cccc4cccc(c34)S2(=O)=O)c(=O)n(-c2ccccc2)n1C` [MLS000050268], 34.2 µM.
In turn, `N#Cc1c(NCCCO)nc(NCc2ccccc2)c2c1CCN(Cc1ccccc1)C2` [3-(3-hydroxypropylamino)-7-(phenylmethyl)-1-[(phenylmethyl)amino]-6,8-dihydro-5H-2,7-naphthyridine-4-carbonitrile] gave a half-maximal inhibitory concentration (IC50) of 39.1 µM.
Still for that read-out and setting: with `O=C(O)c1c(-c2ccccc2)c2oc3ccccc3c2[nH]c1=O` the figure was 17 µM; with `O=C(Nc1ccc(-c2nc3ncccc3o2)cc1)c1ccco1` [MLS000062759], 34.9 µM; with `CCOc1cc(NC(=O)c2ccco2)c(OCC)cc1NC(=O)CCc1ccc(OC)cc1` [Furan-2-carboxylic acid {2,5-diethoxy-4-[3-(4-methoxy-phenyl)-propionylamino]-phenyl}-amide], over 10000 µM.
For `CCc1ccc(NC(=O)c2cnc3scc(C)n3c2=O)cc1` [MLS000102000], the IC50 is over 10000 µM.
On the same count and under the same terms, with `Cc1nc2oc3c(NCc4ccccn4)ncnc3c2c2c1COC(C)(C)C2` [MLS000084529] the figure was over 10000 µM; with `c1ccc(N2CCN(c3cnccn3)CC2)nc1` [2-(4-pyridin-2-ylpiperazin-1-yl)pyrazine], over 10000 µM.
In turn, `Cc1c2ccncc2c(C)c2c1[nH]c1ccccc12` [5,11-dimethyl-2H-pyrido[4,3-b]carbazole] yielded an IC50 of 119 µM.
The same measure, in the same setting: with `CC(NC(=O)c1cccc(N2CCCC2=O)c1)c1ccc2c(c1)OCCO2` (configuration not stated) [MLS000046772] the figure was over 10000 µM; with `CN(c1nc2ccccc2n2c(-c3ccco3)nnc12)S(=O)(=O)c1ccccc1` [MLS000083900], 35.8 µM; with `O=c1c2ccccc2sn1-c1ccc(S(=O)(=O)N2CCCC2)cc1` [2-(4-pyrrolidin-1-ylsulfonylphenyl)-1,2-benzothiazol-3-one], 2.65 µM.
Regarding `O=NC1=C(Cc2ccco2)CCC1` [(2E)-2-(2-furanylmethylidene)-1-cyclopentanone oxime], the IC50 is over 10000 µM.
Same read-out and setting: under `COCCN(Cc1cc2cc3c(cc2[nH]c1=O)OCO3)C(=O)c1cccs1` [N-(2-methoxyethyl)-N-[(6-oxidanylidene-5H-[1,3]dioxolo[4,5-g]quinolin-7-yl)methyl]thiophene-2-carboxamide] stands 37.6 µM; under `Cc1coc2cc3oc(=O)c4c(c3cc12)CCC4` [MLS000054228], 52.9 µM.

Staying with this experiment, now noted: inactive by the depositor's call.
Regarding `Clc1ccc2c(c1)[C@H]1OCC[C@H]1[C@@H](c1ccco1)N2` [(3aS,4S,9bS)-8-chloranyl-4-(furan-2-yl)-2,3,3a,4,5,9b-hexahydrofuro[3,2-c]quinoline], the IC50 was 24.4 µM.
Still for that read-out and setting: under `Cc1ccc(-c2cc(C(F)(F)F)n3ncc(C(=O)NCc4ccco4)c3n2)cc1` [MLS000109298] stands 59.2 µM.
